Results as given in patent publication US20220000817A1, “PROGNOSIS AND TREATMENT OF METASTATIC CANCER” (Academia Sinica, priority 2018, published 2022).
Where a SMILES comes first, the peptide text is derived from it. The star is where a group is joined. Cbz = O=C(OCc1ccccc1)*

Assays:
[1] = test system: EFHD2; assay: Ibuprofen-induced EFHD2 degradation with proteasome/lysosome inhibitors, western blot; assay type: cell-based, human; conditions: for effect on ibuprofen-induced EFHD2 degradation: H1299 cells pretreated 0.5 hr, then 600 μM ibuprofen
Method: FIG. 6. Ibuprofen activates both proteasomal and lysosomal degradation of EFHD2. H1299 cells were pretreated with MG132 and/or Baf-A1 for 0.5 hr, then followed by the treatment of 600 μM ibuprofen for the indicated time. EFHD2 expression was determined by western blot assay.
Western blot analysis. Proteins were separated using 10% or 12.5% SDS-PAGE and transferred onto a PVDF membrane via electroblotting at 400V at 4° C. for 3 hr in 25 mmol/L Tris-HCl, 197 mmol/L glycine, and 13.3% (v/v) methanol. Then, 5% (w/v) skim milk in TBST was used for the blocking reaction, and the primary antibodies were incubated at room temperature overnight. After TBST washes, horseradish peroxidase-conjugated secondary antibodies were further incubated at room temperature for 1 hr. […] The primary antibodies used in this study included EFHD2 (ab106667; abcam), E-cadherin (#5296; Cell Signaling), vimentin (#3932; Cell Signaling), CAV1 (#3238; Cell Signaling), and β-actin (ab8226; abeam).
As ubiquitin-proteasome pathway and autophagy-lysosome pathway are two major systems responsible for cellular protein degradation, we then investigated whether any of the two systems has involved in ibuprofen-mediated EFHD2 degradation.

[2] = test system: EFHD2; assay: Western blot of EFHD2 expression in cancer cells; assay type: cell-based, human; conditions: H1299 and F4 cells
Method: Cell lines and cell culture. Human lung adenocarcinoma cells A549 and H1299 were obtained from the American Type Culture Collection (ATCC, Maryland, USA). Human lung adenocarcinoma cell lines CL1-0 were from National Taiwan University Hospital, Taipei, Taiwan. Cell line CL1-5-F4 (F4) was established by selection of increasingly invasive cell populations from CL1-0 in according to procedures described by Chu Y W et al (Am J Respir Cell Mol Biol (1997) 17:353-360). H1299 and F4 cells were cultured in DMEM/F-12 media (Invitrogen). A549 and CL1-0 cells were maintained in RPMI 1640 media (Invitrogen). All culture media were supplemented with 10% fetal bovine serum and 1% antibiotics (GIBCO). All cells were grown in a humidified atmosphere of 5% CO2 and 95% air at 37° C. Western blot analysis. Proteins were separated using 10% or 12.5% SDS-PAGE and transferred onto a PVDF membrane via electroblotting at […] at 4° C. for 3 hr in 25 mmol/L Tris-HCl, 197 mmol/L glycine, and 13.3% (v/v) methanol. Then, 5% (w/v) skim milk in TBST was used for the blocking reaction, and the primary antibodies were incubated at room temperature overnight. After TBST washes, horseradish peroxidase-conjugated secondary antibodies were further incubated at room temperature for 1 hr. […] The primary antibodies used in this study included EFHD2 (ab106667; abcam), E-cadherin (#5296; Cell Signaling), vimentin (#3932; Cell Signaling), CAV1 (#3238; Cell Signaling), and β-actin (ab8226; abeam). […] Results are illustrated in FIG. 4.

[3] = test system: H1299 cells; assay: MTT cell survival, H1299 shGFP / shEFHD2 cells; assay type: cell-based, human
Method: MTT assay was used to determine cell survival ratio in the control cells (H1299^shGFP) or cells having the expression of EFHD2 being knock-out via interference RNA (H1299^shEFHD2) with or without the treatment of ibuprofen and/or cisplatin.
(§1) MTT assay. […] The absorbance of the solution at 570 nm was measured by spectrophotometer.
In this example, the mechanism of ibuprofen and its combination with a chemotherapeutic drug (i.e., cisplatin) were investigated via comparing their actions on the survival of H1299 cells in the presence or absence of EFHD2. To this purpose, H1299 cells were pre-treated with the present shRNA (i.e., H1299^shEFHD2) to knockdown the expression of EFHD2 in H1299 cells in accordance with procedures described in Example 1; and the control cells were pre-treated with shGFP. Results are depicted in FIG. 7.

[4] = test system: H1299 cells; assay: H1299 xenograft mouse model, tumor size; assay type: in vivo, BALB/c nude mice; conditions: cisplatin 5 mg/Kg injection once per week for 3 weeks; ibuprofen 25 mg/Kg orally; alone or in combination
Excerpt: Animals. All procedures (2017-305) involving animal research were approved by the Institutional Animal Care and Use Committee (IACUC) at Chinese Medical University Hospital (CMUH) (Taichung, Taiwan). 5-week-old male BALB/c nude mice (18 to 25 g) were obtained from the National Laboratory Animal Center (Taipei, Taiwan). Mice were maintained in an environment under a 12: 12 hr light/dark cycle with access to food and water ad libitum.
BALB/c nude mice were orthotropically xenografted with H1299 cells (1×10^6 cells) by stereotactic injection in the back. Mouse tumor progression (including growth and metastasis) was measured by IVIS weekly until week 7.
In this example, in vivo effect of the combined treatment of ibuprofen and cisplatin was investigated via the xenograft mouse model established in accordance with the procedures described in the “Materials and methods” section. For treatment purpose, mice were treated with cisplatin (5 mg/Kg, via injection, once per week for 3 weeks) and ibuprofen (25 mg/Kg, orally fed, on the day when cisplatin was injected, and 1 day prior to, and 1 day after the cisplatin injection), alone or in combination. Mice were then sacrificed and the tumors were isolated and further analyzed. Results are depicted in FIG. 9.

[5] = test system: F4 cells; assay: Sensitization of F4 cells to cisplatin by 2-APAs; assay type: cell-based, human; conditions: F4 cells pre-treated with 20 μM 2-APA, data not shown
Excerpt: In this example, the effect of 2-APAs (e.g., ibuprofen, flurbiprofen, naproxen and ketoprofen) and cisplatin on F4 cells were investigated.

[6] = test system: A549 cells; assay: MTT cell survival, A549 pcDNA / pEFHD2 cells; assay type: cell-based, human
Method: FIG. 8 Susceptibility of cancer cells lacking endogenous EFHD2 to chemotherapeutic drug is not enhanced by ibuprofen. MTT assay was used to determine cell survival ratio in the control cells (A549^pcDNA) or cells transfecting with vectors that carrying exogenous EFHD2 gene (A549^pEFHD2) with or without the treatment of ibuprofen and/or cisplatin.
as §1
In this example, instead of knocking down the endogenous EFHD2 expression via interference RNA, human lung adenocarcinoma cells A549 having low level of endogenous EFHD2 were used to further elucidate the action of ibuprofen (i.e., enhancing the susceptibility of cancer cells to chemotherapeutic drugs). Results are illustrated in FIG. 8.

[7] = test system: EFHD2 mRNA; assay: qPCR of EFHD2 mRNA levels with or without ibuprofen; assay type: cell-based, human; conditions: data not shown
[8] = test system: H1299 and F4 cells; assay: Migration and invasion by matrigel transwell system; assay type: cell-based, human
Method: FIG. 5 Ibuprofen reduced EFHD2 expression in cancer cells. (A) The effect of various doses of ibuprofen on EFHD2 in H1299 and F4 cells were respectively determined by Western blot assay; (B) The effects of ibuprofen on the invasion and migration ability of H1299 and F4 cells were analyzed by matrigel transwell system. Wound healing assay. The in vitro migration assay was performed using a Culture-Insert well (ibidi GmbH, German/v). Cancer cells (4.5×10^4 cells) were cultured in suitable media in the device for 24 hr. After removal of the Culture-Insert, cancer cells were cultured for an additional 8 hr. The migration distance of cancer cells was recorded, and the migration area was measured using ImageJ software. Matrigel invasion assay. For in vitro invasion assay, cancer cells (1.5×10^5 cells in 200 μL) were suspended in the upper half of a PET membrane transwell insert chamber (BD Biosciences), which was coated with Matrigel (1 mg/mL; BD Biosciences), on a 24-well plate. Medium supplemented with 10% FBS was added as a chemoattractant to the lower half After incubation at 37° C. for 24 hr, cancer cells that passed through the insert were fixed with 3.7% formalin (Sigma-Aldrich) and stained with 0.1% crystal violet (Sigma-Aldrich).

SMILES | expression of EFHD2 [2] | sensitivity to subsequent cisplatin treatment (cell death) [5] | other results
CO/C1=C\C(C)=C\[C@@H](C)[C@@H](O)[C@@H](C)C/C(C)=C/C=C/[C@H](OC)[C@@H]([C@@H](C)[C@@H](O)[C@H](C)[C@@]2(O)C[C@@H](O)[C@H](C)[C@@H](C(C)C)O2)OC1=O [Baf-A1, bafilomycin A1] |  |  | effect on ibuprofen-induced EFHD2 degradation [1]: incapable of reducing ibuprofen-induced EFHD2 degradation
CC(C)C[C@@H](C=O)NC(=O)[C@H](CC(C)C)NC(=O)[C@H](CC(C)C)NC(=O)OCc1ccccc1 [MG132] (Cbz-Leu-Leu-Leu-aldehyde) |  |  | effect on ibuprofen-induced EFHD2 degradation [1]: incapable of reducing ibuprofen-induced EFHD2 degradation
CC(=O)Oc1ccccc1C(=O)O [aspirin] | possessed no such effect |  | 
N.N.[Cl][Pt][Cl] [cisplatin] |  |  | survival ratio ([3]; H1299^shGFP and H1299^shEFHD2 cells, cisplatin alone, MTT 24 hours): decreased with an increase in the concentration of cisplatin; size of the tumor [4]: significantly reduce the size of the tumor
O=C(O)Cc1ccccc1Nc1c(Cl)cccc1Cl [diclofenac] | possessed no such effect |  | 
CC(C(=O)O)c1ccc(-c2ccccc2)c(F)c1 (stereo not shown) [flurbiprofen] | effective in suppressing the expression of EFHD2 | more sensitive to the subsequent treatment of cisplatin | 
CC(C)Cc1ccc(C(C)C(=O)O)cc1 (stereo not shown) [ibuprofen] | effective in suppressing the expression of EFHD2 | more sensitive to the subsequent treatment of cisplatin | susceptibility to cisplatin treatment ([6]; A549^pEFHD2 vs A549^pEFHD2+ibuprofen): failed to increase their susceptibilities to cisplatin; susceptibility to cisplatin treatment ([6]; A549^pcDNA vs A549^pcDNA+ibuprofen): no enhanced susceptibility; level of EFHD2 ([2]; various doses of ibuprofen): reduce the level of EFHD2 in a dose-dependent manner; survival ratio, combination with cisplatin ([3]; H1299^shEFHD2 cells vs H1299^shGFP+ibuprofen): comparable to the control cells subjecting to the same treatment; survival ratio, combination with cisplatin ([3]; H1299^shGFP cells, ibuprofen (600 and cisplatin (1, 2, 5, 10 or 20 μM))): lower than those treated with cisplatin alone; mechanism of EFHD2 degradation ([1]; H1299 cells, 600 μM ibuprofen): both proteasomal- and lysosomal-dependent mechanism; EFHD2 mRNA levels [7]: did not influence EFHD2 mRNA levels; size of the tumor [4]: more effective than cisplatin; invasion ability [8]: attenuated; migration ability [8]: attenuated
CC(C(=O)O)c1cccc(C(=O)c2ccccc2)c1 (stereo not shown) [ketoprofen] | effective in suppressing the expression of EFHD2 | more sensitive to the subsequent treatment of cisplatin | 
O=C(c1ccccc1)c1ccc2n1CCC2C(=O)O (stereo not shown) [ketorolac] | possessed no such effect |  | 
Cc1cccc(Nc2ccccc2C(=O)O)c1C [mefenamic acid] | possessed no such effect |  | 
COc1ccc2cc([C@H](C)C(=O)O)ccc2c1 [naproxen] | effective in suppressing the expression of EFHD2 | more sensitive to the subsequent treatment of cisplatin | 
CN1C(C(=O)Nc2ccccn2)=C(O)c2ccccc2S1(=O)=O [piroxicam] | possessed no such effect |  | 
CC1=C(CC(=O)O)c2cc(F)ccc2/C1=C\c1ccc([S+](C)[O-])cc1 (stereo not shown) [sulindac] | possessed no such effect |  | 
